Each molecule was assayed against T1, Human FAAH (Homo sapiens, UniProt O00519) (assay: FAAH enzyme assay (glutamate dehydrogenase coupled, oleamide substrate), irreversible inhibition kinetics). Details: human FAAH, 30° C., pH 7.4.
T1 construct: made in house
T1 sequence (O00519 1-579): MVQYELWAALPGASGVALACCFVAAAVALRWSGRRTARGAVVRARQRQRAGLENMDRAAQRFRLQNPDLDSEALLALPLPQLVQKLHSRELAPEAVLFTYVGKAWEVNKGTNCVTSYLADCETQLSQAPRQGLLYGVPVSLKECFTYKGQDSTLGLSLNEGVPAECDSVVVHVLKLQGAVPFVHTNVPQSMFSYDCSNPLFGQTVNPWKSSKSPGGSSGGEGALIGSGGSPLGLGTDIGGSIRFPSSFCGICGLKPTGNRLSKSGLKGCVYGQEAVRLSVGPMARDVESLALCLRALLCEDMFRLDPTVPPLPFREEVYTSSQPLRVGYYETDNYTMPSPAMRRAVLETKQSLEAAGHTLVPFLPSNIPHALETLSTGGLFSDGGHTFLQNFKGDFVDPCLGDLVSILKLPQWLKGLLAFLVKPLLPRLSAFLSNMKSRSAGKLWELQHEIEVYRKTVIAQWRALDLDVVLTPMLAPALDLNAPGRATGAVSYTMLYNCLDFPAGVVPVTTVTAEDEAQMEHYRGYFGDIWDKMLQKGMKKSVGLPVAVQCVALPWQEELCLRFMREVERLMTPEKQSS
Format: biochemical
Procedure: A FAAH enzyme assay may be carried out as described in WO2006/085196 in 384-well clear polystyrene plates in a total volume of 50 μl per well. All percents are by volume. To each well was placed the reaction mixture (40 μl) containing 1-4 nM FAAH, 50 mM NaPi, pH 7.4, 3 mM α-ketoglutarate, 0.15 mM NADH, 7.5 U/ml glutamate dehydrogenase, 2 mM ADP, 1 mM EDTA, and 0.1% Triton X-100 (The concentration shown for each component is the final concentration in the assay). To this mixture was added 5 μl of a compound of Examples 1 to 20 at various concentrations prepared in 50% DMSO (or 5 μl 50% DMSO for controls). This was immediately followed by the addition of 5 μl oleamide (500 μM) dissolved in 75% EtOH/25% DMSO and the reaction mixture is mixed for 1.5 min. The final concentrations of DMSO and EtOH in the assay were each 7.5%. The reactions was then incubated at 30° C. and the absorbance at 340 nm was collected over a period of 90 min with readings taken in 30-second intervals using SpectraMax Plus^384 Microplate Spectrophotometer (Molecular Devices, Sunnyvale, Calif.). Human FAAH used in the assay was prepared as described in the patent application WO 2006/067613. The purity of the enzyme used was greater than 98% based on an analysis by SDS-polyacrylamide gel electrophoresis followed by Coomassie Blue staining.
Initial velocity data (V) is obtained from the slopes of the initial progressive curves. They are plotted as a function of substrate concentration and fit to the Michaelis-Menten equation (1) using Prism (GraphPad Software, Inc., San Diego, Calif.) software to obtain Km and Vmax values.
To obtain potencies of irreversible inhibitors, progressive curves consistent with first order inhibition kinetics (two-step irreversible inhibition mechanism) are fit to equation (2) by nonlinear least squares regressions to determine kobs values at each inhibitor concentration, where [P]t is the absorbance at time t, V0 is a constant related to the steady state rate of the uninhibited reaction, and kobs is the first order rate constant for enzyme inactivation. The inhibitor dissociation constant (Ki) and the first order rate
(2) constant of enzyme inactivation at infinite inhibitor concentration (kinact) are then obtained by fitting the kobs vs. [I] curves to equation (3).

Q: `CC1CN(C(=O)Nc2cccnn2)CC/C1=C\c1cccc(Oc2ccc(C(F)(F)F)cn2)c1` (single isomer, unassigned) [Example 1, (4E)-3-methyl-N-pyridazin-3-yl-4-(3-{[5-(trifluoromethyl)pyridin-2-yl]oxy}benzylidene)piperidine-1-carboxamide] was tested. Which “hFAAH Kinact/Ki” value did it give?
A: 4590 M⁻¹ s⁻¹

Q: For `CC1CN(C(=O)Nc2cccnn2)CC/C1=C\c1cccc(Oc2ccc(C(F)(F)F)cn2)c1` (single isomer, unassigned) [Example 2, (4E)-3-methyl-N-pyridazin-3-yl-4-(3-{[5-(trifluoromethyl)pyridin-2-yl]oxy}benzylidene)piperidine-1-carboxamide], which “hFAAH Kinact/Ki” value is on record?
A: 254 M⁻¹ s⁻¹

Q: `CC1CN(C(=O)Nc2cccnc2)CC/C1=C\c1cccc(Oc2ccc(C(F)(F)F)cn2)c1` (single isomer, unassigned) [Example 3, (4E)-3-methyl-N-pyridin-3-yl-4-(3-{[5-(trifluoromethyl)pyridin-2-yl]oxy}benzylidene)piperidine-1-carboxamide] was tested. Which “hFAAH Kinact/Ki” value did it give?
A: 4890 M⁻¹ s⁻¹

Q: How did the “hFAAH Kinact/Ki” value turn out when `CC1CN(C(=O)Nc2cccnc2)CC/C1=C\c1cccc(Oc2ccc(C(F)(F)F)cn2)c1` (single isomer, unassigned) [Example 4, (4E)-3-methyl-N-pyridin-3-yl-4-(3-{[5-(trifluoromethyl)pyridin-2-yl]oxy}benzylidene)piperidine-1-carboxamide] was run?
A: 71.4 M⁻¹ s⁻¹

Q: For `CC1CN(C(=O)Nc2cccnc2)CC/C1=C\c1cccc(Oc2ncc(C(F)(F)F)cn2)c1` (single isomer, unassigned) [Example 16, (4E)-3-methyl-N-pyridin-3-yl-4-(3-{[5-(trifluoromethyl)pyrimidin-2-yl]oxy}benzylidene)piperidine-1-carboxamide], which “hFAAH Kinact/Ki” value is on record?
A: 6930 M⁻¹ s⁻¹

Q: How did the “hFAAH Kinact/Ki” value turn out when `CC1CN(C(=O)Nc2cccnc2)CC/C1=C\c1cccc(Oc2ncc(C(F)(F)F)cn2)c1` (single isomer, unassigned) [Example 17, (4E)-3-methyl-N-pyridin-3-yl-4-(3-{[5-(trifluoromethyl)pyrimidin-2-yl]oxy}benzylidene)piperidine-1-carboxamide] was run?
A: <15.5 M⁻¹ s⁻¹

Q: How did the “hFAAH Kinact/Ki” value turn out when “(4E)-N-1,2-benzisoxazol-3-yl-3-methyl-4-(3-{[5-(trifluoromethyl)pyridin-2-yl]oxy}benzylidene)piperidine-1-carboxamide [Example 13]” was run?
A: 733 M⁻¹ s⁻¹

Q: With “(4E)-N-(6-methoxypyridazin-3-yl)-3-methyl-4-(3-{[5-(trifluoromethyl)pyridin-2-yl]oxy}benzylidene)piperidine-1-carboxamide [Example 12]” as the molecule, how does the “hFAAH Kinact/Ki” value read?
A: 2500 M⁻¹ s⁻¹

Same assay, conditions: pH 7.4, human FAAH, 30° C., read-out: hFAAH Kinact/Ki

Q: For `CC1CN(C(=O)Nc2cccnc2)CC/C1=C\c1cccc(Oc2ccc(Br)cn2)c1` (racemic) [Example 14, (4E)-4-{3-[(5-bromopyridin-2-yl)oxy]benzylidene}-3-methyl-N-pyridin-3-ylpiperidine-1-carboxamide], which kinact/KI is on record?
A: 747 M⁻¹ s⁻¹

Q: How did the kinact/KI turn out when `CC1CN(C(=O)Nc2cccnc2)CC/C1=C\c1cccc(Oc2ccc(Cl)cn2)c1` (racemic) [Example 15, (4E)-4-{3-[(5-chloropyridin-2-yl)oxy]benzylidene}-3-methyl-N-pyridin-3-ylpiperidine-1-carboxamide] was run?
A: 4170 M⁻¹ s⁻¹

Q: With `COc1ccc(NC(=O)N2CC/C(=C\c3cccc(Oc4ccc(C(F)(F)F)cn4)c3)C(C)C2)cn1` (single isomer, unassigned) [Example 5, (4E)-N-(6-methoxypyridin-3-yl)-3-methyl-4-(3-{[5-(trifluoromethyl)pyridin-2-yl]oxy}benzylidene)piperidine-1-carboxamide] as the molecule, how does the kinact/KI read?
A: 2850 M⁻¹ s⁻¹

Q: For `CC1CN(C(=O)Nc2cnc3[nH]ccc3c2)CC/C1=C\c1cccc(Oc2ccc(C(F)(F)F)cn2)c1` (single isomer, unassigned) [Example 6, (4E)-3-methyl-N-1H-pyrrolo[2,3-b]pyridin-5-yl-4-(3-{[5-(trifluoromethyl)pyridin-2-yl]oxy}benzylidene)piperidine-1-carboxamide], which kinact/KI is on record?
A: 1420 M⁻¹ s⁻¹

Q: For `Cc1cncc(NC(=O)N2CC/C(=C\c3cccc(Oc4ccc(C(F)(F)F)cn4)c3)C(C)C2)c1` (single isomer, unassigned) [Example 7, (4E)-3-methyl-N-(5-methylpyridin-3-yl)-4-(3-{[5-(trifluoromethyl)pyridin-2-yl]oxy}benzylidene)piperidine-1-carboxamide], which kinact/KI is on record?
A: 1290 M⁻¹ s⁻¹

Q: For `CC1CN(C(=O)Nc2ccc(C#N)nc2)CC/C1=C\c1cccc(Oc2ccc(C(F)(F)F)cn2)c1` (single isomer, unassigned) [Example 8, (4E)-N-(6-cyanopyridin-3-yl)-3-methyl-4-(3-{[5-(trifluoromethyl)pyridin-2-yl]oxy}benzylidene)piperidine-1-carboxamide], which kinact/KI is on record?
A: 2460 M⁻¹ s⁻¹

Q: How did the kinact/KI turn out when `COc1cnc(NC(=O)N2CC/C(=C\c3cccc(Oc4ccc(C(F)(F)F)cn4)c3)C(C)C2)cn1` (single isomer, unassigned) [Example 9, (4E)-N-(5-methoxypyrazin-2-yl)-3-methyl-4-(3-{[5-(trifluoromethyl)pyridin-2-yl]oxy}benzylidene)piperidine-1-carboxamide] was run?
A: 2390 M⁻¹ s⁻¹

Q: For `Cc1cnc(NC(=O)N2CC/C(=C\c3cccc(Oc4ccc(C(F)(F)F)cn4)c3)C(C)C2)cn1` (single isomer, unassigned) [Example 10, (4E)-3-methyl-N-(5-methylpyrazin-2-yl)-4-(3-{[5-(trifluoromethyl)pyridin-2-yl]oxy}benzylidene)piperidine-1-carboxamide], which kinact/KI is on record?
A: 3390 M⁻¹ s⁻¹

Q: For `COc1cncc(NC(=O)N2CC/C(=C\c3cccc(Oc4ccc(C(F)(F)F)cn4)c3)C(C)C2)n1` (single isomer, unassigned) [Example 11, (4E)-N-(6-methoxypyrazin-2-yl)-3-methyl-4-(3-{[5-(trifluoromethyl)pyridin-2-yl]oxy}benzylidene)piperidine-1-carboxamide], which kinact/KI is on record?
A: 1880 M⁻¹ s⁻¹

Each molecule was assayed against T2, rFAAH (Rattus norvegicus, UniProt P97612) (assay: FAAH_KINACTR rFAAH kobs/I). Details: further data table, substances given by IUPAC name only.
T2 sequence (P97612 1-579): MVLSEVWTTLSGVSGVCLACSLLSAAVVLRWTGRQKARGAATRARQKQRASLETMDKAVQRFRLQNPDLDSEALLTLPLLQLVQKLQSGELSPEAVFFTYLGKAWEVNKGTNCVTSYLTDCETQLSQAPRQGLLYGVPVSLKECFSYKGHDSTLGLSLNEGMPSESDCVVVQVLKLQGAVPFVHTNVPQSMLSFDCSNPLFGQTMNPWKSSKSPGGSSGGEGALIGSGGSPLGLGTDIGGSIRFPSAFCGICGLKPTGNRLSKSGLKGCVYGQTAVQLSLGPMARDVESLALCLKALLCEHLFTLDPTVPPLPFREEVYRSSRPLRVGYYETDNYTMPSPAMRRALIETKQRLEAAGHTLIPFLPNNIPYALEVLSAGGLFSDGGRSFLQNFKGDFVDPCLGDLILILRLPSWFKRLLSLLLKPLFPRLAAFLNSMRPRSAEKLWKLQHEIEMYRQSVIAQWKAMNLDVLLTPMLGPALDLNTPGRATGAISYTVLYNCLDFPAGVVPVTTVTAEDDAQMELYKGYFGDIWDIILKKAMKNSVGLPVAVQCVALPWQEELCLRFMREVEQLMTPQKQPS
Format: biochemical

Q: `CC1CN(C(=O)Nc2cccnn2)CC/C1=C\c1cccc(Oc2ccc(C(F)(F)F)cn2)c1` (stereo not drawn) [(4E)-3-methyl-N-pyridazin-3-yl-4-(3-{[5-(trifluoromethyl)pyridin-2-yl]oxy}benzylidene)piperidine-1-carboxamide] was tested. Which “FAAH_KINACTR:rFAAH:kobs/I” value did it give?
A: 3730

Reference: US20110053949A1, “4-[3-(ARYLOXY)BENZYLIDENE]-3-METHYL PIPERIDINE ARYL CARBOXAMIDE COMPOUNDS USEFUL AS FAAH INHIBITORS” (PFIZER INC., priority 2008, published 2011)
